Data reported in patent US20230407374A1, “SYSTEMS AND METHODS FOR HIGH THROUGHPUT SCREENING OF MOLECULAR INTERACTIONS” (priority 2020, published 2023).

Target: short 8-mer DNA zipper (Z1: ATGTCCAT) target interaction
Assay: nanoswitch-FRET dose response with blocking oligonucleotides
Format: binding
Settings: 1 nM nanoswitches with Z1 target interaction
Excerpt: DNA nanoswitches were created as previously described (Koussa et al. 2015, Hansen et al. 2017). Briefly, circular ssDNA from the 7,249-nt bacteriophage M13 (New England BioLabs) was linearized by enzymatic cleavage of a single site using BtscI (New England BioLabs) and a site-specific oligonucleotide. This ssDNA scaffold was mixed with a molar excess of tiling 60-mer oligonucleotides (10:1), excluding the complementary regions for detection oligonucleotide and target interaction partners, and subjected to a temperature ramp from 90 to 20° C. at 1° C.−min-1. The detection oligonucleotides were added at 55° C. during the hybridization protocol. […]
The FRET from nanoswitches was quantified using a BioTek Neo plate reader. Specifically, the FRET emission was measured at 665 nm from […] and the non-FRET emission at 555 nm from […] using the built in monochromator-based system. The FRET ratio was then calculated as the ratio of the signal at 665 nm over 555 nm. For nanoswitch concentrations 2 nM and above, to reduce background, excitation at 540 nm was used instead and the FRET emission was measured at 680 nm.
FRET was measured in the presence of increasing concentrations of 7-mer (TGGACAT) or 8-mer ([…]) blocking oligonucleotides that bind to one side of the zipper. […]

Sequence	Ki (95% CI by bootstrapping (150 nM, 430 nM))	Ki (95% CI by bootstrapping (1.2 μM, 3.8 μM))
ATGGACAT [8-mer]	260 nM	–
TGGACAT [7-mer]	–	2000 nM
